# “And” between values parts separate entries of the source, which are not always exact repeats. Identical values can stand only once. Like-named read-outs stand apart in the source and are kept apart here.
# Tests used:
# [1] = design: method as in PMID 1289357, PMID 14695832; details: cited from earlier work
# [2] = tested on: intracellular L.donovani amastigotes, AG83-R, SSG, in macrophages; assay: microbe, parasite or virus in culture; format: cell-based
# Experimental: (§1) SSG and PMM resistant L. donovani amastigotes were generated by using the methods described previously. […] The cultures were stabilized for three subcultures. Then, the drug concentration was increased until the cell population decreased approximately to 20% for each batch. Finally, when 90% cell population of the initial count was reduced, the phenotype generated was plated on medium 199 agar plates containing the same drug concentration, and a single colony was picked for culture in medium 199 liquid media at the same drug concentration. The cultured promastigotes are converted into amastigotes as described above. Drug pressure was withdrawn, and stability was checked at one, two, and four months. SSG and PMM resistant phenotype clones were labeled as AG83-R,SSG and AG83-R, PMM, respectively.
# (§2) The intracellular antileishmanial activity was evaluated based on the reduction in the amastigote numbers in the infected macrophages after the treatment. The method was adapted from our previous work. Briefly, 4x10^6 amastigotes in 500 μL of RPMI-1640 suspension were added to each well containing macrophages with the macrophage: parasite ratio of 1:10. The plates were incubated for 4 h at 37°C in 5% CO2. After the parasite internalization period, cells were washed at least twice with fresh media to remove non-phagocytosed parasites. Then, the drug specimen suspended in 1 mL RPMI-1640 was added, and the samples were incubated for 72 h at 37°C in 5% CO2. The medium was aspirated, the coverslips were removed, and then fixed with methanol and air-dried. After staining with Giemsa, 100 cells on the glass discs were counted. Three independent experiments in quadruplicate for each concentration were performed.
# (§3) Microscopic examinations were performed in duplicates with various concentrations of pure drugs or buparvaquone-loaded nanoparticles and also for control wells. The amastigotes cells were counted for all cases using a hemocytometer. The mean of the control wells was considered as 100% survival. The counts in the treated wells at various concentrations were converted into percentages. Giemsa-stained slides of the macrophages infected with amastigotes were observed under a light microscope. Then the numbers of amastigotes and infected macrophages per 100 cells were counted for each slide. The percentage (%) of inhibition was calculated by using the equation %ofinhibition=C−T/C×100, (2) where C is the number of amastigotes/infected macrophages per 100 cells in the control well and T is the number of amastigotes/infected macrophages per 100 cells in the drug-treated well.
# (§4) Origin version 6.1 software was used to calculate IC50 and CC50 values by plotting a graph of the percentage of inhibition at various concentrations of all the observations.
# [3] = tested on: intracellular L.donovani amastigotes, AG83-R, PMM, in macrophages; assay: microbe, parasite or virus in culture; format: cell-based
# Experimental: as §1, §2, §3, §4
# [4] = tested on: wild-type L. donovani AG83 amastigotes in spleen; assay: Culture microtitration assay (CMA) in infected mice; format: in vivo, BALB/c mice; details: for Spleen: 7 days post-treatment, n = 5; for Suppression (%) of L. donovani amastigote burden in spleen: CMA method, 2 mg/kg
# Experimental: The infected control group was injected with 0.2 mL of sterile water during the entire dosing period. Seven days post-treatment, the animals were sacrificed, and their spleens were aseptically removed and weighed for determination of amastigote burden by microtitration assay as described elsewhere. Wells were examined for viable and motile promastigotes. The final titer was the last dilution for which the well contained at least one parasite. […] (5) .
# [5] = tested on: axenic L.donovani amastigotes, GE1 (isolated strain resistant to SSG); assay: Antileishmanial activity against axenic amastigotes, GE1; format: cell-based
# Experimental: L. donovani AG83 (MHOM/IN/83/AG83) and GE1 (MHOM/IN/80/GE1F8R) promastigotes were routinely grown in medium 199 supplemented with 10% heat-inactivated fetal bovine serum, 2 mM L-glutamine, 20 mM HEPES, 100 U/mL penicillin, and 100 μg/mL streptomycin at 25°C. L. donovani amastigote forms were grown and maintained as described previously. Axenic amastigote forms were derived from promastigote forms by culturing them in MMA/20 (medium for axenic amastigote) at pH 5.5 [22]. Axenically grown amastigotes were maintained by sub-culture of 10^5 parasites/ml repeated every fifth day under experimental conditions of 37°C temperature and 5% CO2 environment.
# The antileishmanial activity of the drug specimens (BPQ+NP, BPQ, SSG, AmB, PMM, and MF) against the axenic amastigotes were evaluated based on the IC50 value, which is the concentration of the specimen required to kill 50% of the parasites. The parasites were first seeded into 96-well plates at a density of 1x10^5 amastigotes/well in 200 μL medium. Then, 10 μL of the drug candidates at various concentrations were added and the final volume was adjusted to […] medium. The number of amastigotes in the wells treated with each specimen were compared to those in the untreated control wells.
# as §3, §4
# [6] = tested on: intracellular L.donovani amastigotes, GE1, in macrophages; assay: Antileishmanial activity against intracellular amastigotes, GE1; format: cell-based
# Experimental: as §2, §3, §4
# [7] = tested on: L. infantum infection; design: method as in earlier work; details: against L. infantum infection; ref 32 (Reimao et al.); cited from earlier work
# [8] = tested on: intracellular L.donovani amastigotes, wild-type AG83, in macrophages; assay: Antileishmanial activity against intracellular amastigotes, wild-type AG83; format: cell-based; details: for IC50: Leishmania donovani, Macrophage
# Experimental: as §2, §3, §4
# [9] = 2 doses of 2 mg/kg i.p. at 5 days interval
# [10] = 4 doses of 2 mg/kg i.p. at 5 days interval
compound,measurement,setting,value
"CC(C)(C)[C@H]1CC[C@H](CC2=C(O)C(=O)c3ccccc3C2=O)CC1 [BPQ, Buparvaquone]",Aqueous solubility,[1],< 0.03 µg/mL
same,Fold larger cellular IC50 of pure BPQ than BPQ+NP,"[2]; AG83-R, SSG",5 fold
same,"Selectivity index (SI), AG83-R, SSG","[2]; CC50/IC50, intracellular",60 ± 10
same,IC50,"[2]; Leishmania donovani, Macrophage, 72 h, read-out: Cellular IC50, AG83-R, SSG",5.4 ± 0.4 µM
same,Fold larger cellular IC50 of pure BPQ than BPQ+NP,"[3]; AG83-R, PMM",5 fold
same,"Selectivity index (SI), AG83-R, PMM","[3]; CC50/IC50, intracellular",60 ± 10
same,IC50,"[3]; Leishmania donovani, Macrophage, 72 h, read-out: Cellular IC50, AG83-R, PMM",4.8 ± 0.5 µM
same,Spleen,[4]; [9],140 ± 22 mg
same,Suppression (%) of L. donovani amastigote burden in spleen,[4]; [9],52% and 52 ± 3 %
same,Spleen,[4]; [10],131 ± 18 mg
same,Suppression (%) of L. donovani amastigote burden in spleen,[4]; [10],64% and 64 ± 4 %
same,Reduction of parasite burden (CMA),"[4]; spleen, 2 mg/kg i.p., 2 or 4 doses at 5 days interval",50%
same,Fold higher axenic IC50 of pure BPQ than BPQ+NP,[5]; GE1,4 fold
same,"Resistance index (RI), GE1","[5]; IC50 against drug resistant strain / IC50 against wild-type strain (AG83), axenic",1.2 ± 1.4
same,IC50,"[5]; Leishmania donovani, axenic amastigotes, mean ± σ, n = 4",4.1 ± 0.8 µM
same,"Selectivity index (SI), GE1","[6]; CC50/IC50, intracellular",90 ± 10
same,Fold larger cellular IC50 of pure BPQ than BPQ+NP,[6]; GE1,4 fold
same,IC50,"[6]; Leishmania donovani, Macrophage, intracellular amastigotes, 72 h, mean ± σ, n = 4, read-out: Cellular IC50, GE1",3.8 ± 0.4 µM
same,IC50,[7],1500 nM
same,Fold larger cellular IC50 of pure BPQ than BPQ+NP,[8]; AG83,3 fold
same,"Selectivity index (SI), AG83","[8]; CC50/IC50, intracellular",120 ± 10
same,IC50,"[8]; cellular model, range over all four L. donovani strains (Table 3), read-out: Cellular IC50, range over the strains",2000 to 5000 nM
same,IC50,"[8]; intracellular amastigotes, 72 h, mean ± σ, n = 4, read-out: Cellular IC50, Wild-type AG83",2900 ± 300 nM
